Literature values in US20170035783A1, “COMPOSITION FOR THE PREVENTION AND THERAPY OF TUMOR DISEASES” (SANOXSYS GMBH, priority 2014, published 2017).

Tested on: breast cancer risk
Conditions: subcutaneous pellet, 2008-2010

Compound: C[C@]12CC[C@H]3[C@@H](CCC4=CC(=O)CC[C@@]43C)[C@@H]1CC[C@@H]2O [testosterone alone, testosterone]
- breast cancer risk in pre- and postmenopausal women: reduce the breast cancer risk
